Reference: the supplement of paper PMC10307832

Columns and labels:
Test in all cases: relative viability (nuclei count vs DMSO), 5 days (fraction); higher = more cells survive
Apatinib + Lapatinib = compound: N#CC1(c2ccc(NC(=O)c3cccnc3NCc3ccncc3)cc2)CCCC1 [Apatinib] + CS(=O)(=O)CCNCc1ccc(-c2ccc3ncnc(Nc4ccc(OCc5cccc(F)c5)c(Cl)c4)c3c2)o1 [Lapatinib] (partner 2 µM)
Method in brief: (§1)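 Relative viability divides the nuclei count in treated wells by that in vehicle wells. Lung cancer cell lines were seeded in 1536-well plates, dosed by pin tool the next day, and fixed and stained after 5 days in one step with final 0.05% Triton X-100, 1% formaldehyde and 1 ug/ml Hoechst. Dosing was a single drug or a fixed anchor-drug dose plus five library-drug doses (not always all listed) in √10 steps, and values are medians of duplicate plates imaged at 4×.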

Metformin + Decitabine = compound: CN(C)C(=N)NC(=N)N [Metformin] + Nc1ncn([C@H]2C[C@H](O)[C@@H](CO)O2)c(=O)n1 [Decitabine] (partner 2 µM)
Method in brief: as §1

Metformin + Vorinostat = compound: CN(C)C(=N)NC(=N)N [Metformin] + O=C(CCCCCCC(=O)Nc1ccccc1)NO [Vorinostat] (partner 1 µM)
Method in brief: as §1

Apatinib + Alpelisib = compound: N#CC1(c2ccc(NC(=O)c3cccnc3NCc3ccncc3)cc2)CCCC1 [Apatinib] + Cc1nc(NC(=O)N2CCC[C@H]2C(N)=O)sc1-c1ccnc(C(C)(C)C(F)(F)F)c1 [Alpelisib] (partner 2 µM)
Method in brief: as §1

| Cell Line | relative viability (Apatinib + Lapatinib; first compound 0.08 µM) | relative viability (Apatinib + Lapatinib; first compound 0.253 µM) | relative viability (Apatinib + Lapatinib; first compound 0.8 µM) | relative viability (Apatinib + Lapatinib; first compound 2.53 µM) | relative viability (Apatinib + Lapatinib; first compound 8 µM) | relative viability (Metformin + Decitabine; first compound 10 µM) | relative viability (Metformin + Decitabine; first compound 31.62 µM) | relative viability (Metformin + Decitabine; first compound 100 µM) | relative viability (Metformin + Decitabine; first compound 316.23 µM) | relative viability (Metformin + Decitabine; first compound 1000 µM) | relative viability (Metformin + Vorinostat; first compound 10 µM) | relative viability (Metformin + Vorinostat; first compound 31.62 µM) | relative viability (Metformin + Vorinostat; first compound 100 µM) | relative viability (Metformin + Vorinostat; first compound 316.23 µM) | relative viability (Metformin + Vorinostat; first compound 1000 µM) | relative viability (Apatinib + Alpelisib; first compound 0.08 µM) | relative viability (Apatinib + Alpelisib; first compound 0.253 µM) | relative viability (Apatinib + Alpelisib; first compound 0.8 µM) | relative viability (Apatinib + Alpelisib; first compound 2.53 µM) | relative viability (Apatinib + Alpelisib; first compound 8 µM) |
| --- | --- | --- | --- | --- | --- | --- | --- | --- | --- | --- | --- | --- | --- | --- | --- | --- | --- | --- | --- | --- |
| NCI-H650 | 0.799 | 0.982 | 0.784 | 0.74 | 0.583 | 0.274 | 0.313 | 0.314 | 0.301 | 0.312 | 0.425 | 0.413 | 0.405 | 0.556 | 0.533 | 1.23 | 1.25 | 1.04 | 1.03 | 0.987 |
| NCI-H2405 | 0.959 | 1.3 | 1.1 | 0.975 | 0.992 |  | 0.783 | 0.756 | 0.677 | 0.64 |  | 0.991 | 1.03 | 1.02 | 0.587 | 0.855 | 1.1 | 0.91 | 0.841 | 0.81 |
| H3255 | 0.235 | 0.227 | 0.231 | 0.311 | 0.286 | 0.531 | 0.665 | 0.596 | 0.61 | 0.624 | 0.627 | 0.921 | 0.758 | 0.811 | 0.929 | 0.665 | 0.674 | 0.569 | 0.614 | 0.537 |
| NCI-H520 | 0.981 | 1.12 | 0.856 | 0.767 | 0.659 | 0.463 | 0.447 | 0.461 | 0.423 | 0.485 | 0.748 | 0.757 | 0.84 | 0.714 | 0.763 | 0.924 | 0.865 | 0.918 | 0.685 | 0.633 |
| SK-LU-1 | 0.939 | 1.16 | 1.03 | 0.715 | 0.709 | 0.567 | 0.571 | 0.64 | 0.507 | 0.615 | 0.723 | 0.645 | 0.759 | 0.667 | 0.766 | 1.15 | 1.15 | 0.979 | 0.906 | 0.692 |
| NCI-H1755 | 1.03 | 1 | 1.04 | 1.08 | 0.722 | 0.685 | 0.535 | 0.643 | 0.644 | 0.635 | 0.579 | 0.629 | 0.711 | 0.657 | 0.763 | 0.933 | 0.946 | 0.909 | 0.899 | 0.845 |
| EPLC-272H | 1.13 | 0.874 | 1.11 | 0.708 | 1.05 | 0.383 | 0.415 | 0.426 | 0.38 | 0.507 | 0.529 | 0.352 | 0.383 | 0.4 | 0.579 | 1.04 | 0.904 | 0.841 | 0.971 | 0.903 |
| NCI-H23 | 1.54 | 1.2 | 0.959 | 1.04 | 0.905 | 0.273 | 0.276 | 0.285 | 0.324 | 0.328 | 0.618 | 0.574 | 0.653 | 0.561 | 0.848 | 0.665 | 0.911 | 0.595 | 0.627 | 0.558 |
| NCI-H1944 | 0.832 | 0.863 | 0.736 | 0.745 | 0.739 | 0.361 | 0.381 | 0.437 | 0.401 | 0.453 | 0.465 | 0.651 | 0.571 | 0.59 | 0.631 | 0.868 | 0.905 | 0.74 | 0.798 | 0.866 |
| NCI-H2170 | 0.307 | 0.241 | 0.466 | 0.271 | 0.281 | 0.415 | 0.436 | 0.417 | 0.395 | 0.471 | 0.55 | 0.777 | 0.79 | 0.813 | 0.795 | 0.884 | 0.776 | 0.8 | 0.743 | 0.706 |
| COR-L23 | 0.919 | 1.16 | 1.05 | 0.792 | 0.722 | 0.456 | 0.514 | 0.365 | 0.388 | 0.435 | 0.312 | 0.304 | 0.406 | 0.288 | 0.362 | 0.966 | 0.743 | 0.772 | 0.774 | 0.652 |
| COR-L 105 | 0.358 | 0.342 | 0.354 | 0.336 | 0.33 | 0.588 | 0.64 | 0.695 | 0.719 | 0.697 | 0.795 | 0.807 | 0.895 | 0.848 | 0.495 | 1.01 | 1.23 | 0.82 | 0.921 | 0.731 |
| HCC-15 | 0.928 | 0.859 | 0.808 | 0.742 | 0.827 | 0.548 | 0.636 | 0.703 | 0.662 | 0.703 | 0.84 | 0.849 | 0.959 | 0.77 | 0.95 | 0.911 | 0.904 | 0.839 | 0.891 | 0.705 |
| NCI-H1666 | 0.631 | 0.726 | 0.736 | 0.759 | 0.682 | 0.66 | 0.713 | 0.649 | 0.619 | 0.823 | 0.979 | 0.946 | 1.01 | 1.06 | 1.1 | 0.943 | 1.01 | 0.936 | 0.979 | 0.943 |
| HCC-78 | 0.568 | 0.731 | 0.942 | 0.829 | 0.748 |  | 0.605 | 0.768 | 0.779 | 0.658 |  | 0.479 | 0.559 | 0.516 | 0.417 | 0.414 | 0.291 | 0.364 | 0.25 | 0.382 |
| A-427 | 1.06 | 1.1 | 1.06 | 0.984 | 0.982 | 0.524 | 0.587 | 0.571 | 0.521 | 0.574 | 0.848 | 0.863 | 0.827 | 0.819 | 0.776 | 1.14 | 1.02 | 1.19 | 1.02 | 1 |
| NCI-H596 | 1.16 | 1.1 | 1.02 | 0.976 | 1.18 | 1.17 | 1.12 | 1.06 | 1.01 | 1.11 | 0.691 | 0.854 | 0.674 | 0.596 | 0.784 | 0.535 | 0.528 | 0.579 | 0.402 | 0.222 |
| EMC-BAC-2 | 0.954 | 0.886 | 0.878 | 0.877 | 0.807 | 0.844 | 1.02 |  | 0.855 | 0.861 | 0.474 | 0.417 |  | 0.492 | 0.37 | 0.759 | 0.785 | 0.76 | 0.751 | 0.678 |
| NCI-H2126 | 0.757 | 0.768 | 0.762 | 0.711 | 0.78 | 0.554 | 0.592 | 0.557 | 0.571 | 0.562 | 0.739 | 0.704 | 0.752 | 0.694 | 0.872 | 0.818 | 0.761 | 0.758 | 0.743 | 0.767 |
| NCI-H1437 | 0.761 | 0.841 | 0.745 | 0.624 | 0.537 | 0.641 | 0.595 | 0.59 | 0.593 | 0.577 | 1.1 | 1.34 | 0.993 | 0.961 | 1.01 | 1.03 | 1.11 | 0.911 | 0.912 | 0.644 |
| LXF-289 | 0.935 | 0.894 | 0.888 | 0.838 | 0.875 | 0.312 | 0.367 | 0.345 | 0.312 | 0.378 | 0.65 | 0.661 | 0.712 | 0.66 | 0.729 | 1.13 | 1.06 | 1.03 | 0.998 | 0.964 |
| LK-2 | 0.7 | 0.827 | 0.878 | 0.782 | 0.73 | 0.298 | 0.398 | 0.33 | 0.294 | 0.444 | 0.232 | 0.264 | 0.273 | 0.339 | 0.397 | 1.33 | 1.29 | 1.04 | 1.01 | 0.919 |
| LC-2-ad | 0.925 | 0.998 | 0.947 | 0.9 | 0.71 |  | 0.736 | 0.826 | 0.583 | 0.642 |  | 0.64 | 0.657 | 0.596 | 0.803 | 0.9 | 0.798 | 0.802 | 0.824 | 0.652 |
| NCI-H2085 | 0.726 | 0.683 | 0.873 | 0.619 | 0.768 | 0.498 | 0.453 | 0.484 | 0.531 | 0.524 | 0.733 | 0.747 | 0.775 | 0.788 | 0.812 | 1.05 | 0.931 | 0.931 | 0.858 | 0.792 |
| RERF-LC-KJ | 0.787 | 0.851 | 0.817 | 0.693 | 0.698 | 0.687 | 0.703 | 0.505 | 0.556 | 0.514 | 0.564 | 0.745 | 0.634 | 0.534 | 0.612 | 0.857 | 0.875 | 0.779 | 0.751 | 0.823 |
| LOU-NH91 | 0.727 | 0.726 | 0.754 | 0.712 | 0.77 | 0.787 | 0.799 | 0.848 | 0.797 | 0.79 | 0.86 | 0.852 | 0.839 | 0.925 | 0.833 | 0.762 | 0.699 | 0.586 | 0.616 | 0.568 |
| NCI-H2009 | 0.993 | 0.893 | 0.863 | 0.795 | 0.538 | 0.367 | 0.366 | 0.351 | 0.401 | 0.424 | 0.715 | 0.706 | 0.857 | 0.83 | 0.75 | 1.13 | 1.2 | 1.1 | 1.02 | 0.893 |
